For 5 compounds, IC50 results are on record in US20250154141A1 (University of Florida Research Foundation, Incorporated, priority 2021, published 2025).

One experiment deals with RS4; 11. Put plainly: Cell viability assay (MTS) in RS4; 11 cells. Particulars: Homo sapiens, RS4-11. The class given is cell-based. As to the method:
(§1) Acute lymphoblastic leukemia cells (MOLT-4 and RS4; 11) were incubated with increasing concentrations of Bcl-xL degraders for 48 h. Cell viability was measured by tetrazolium-based MTS assay.

The test system of the next experiment is MOLT-4. Put plainly: Cell viability assay (MTS) in MOLT-4 cells. The class given is cell-based. Conditions: Homo sapiens, MOLT-4. As for the experimental part: as §1
Setting [1] is: Table 2, 48 hr, MTS, read-out: Anti-Cancer Activity IC50 (48 hr) RS4, 11.
The mark [2] stands for this setting: Table 2, 48 hr, MTS, read-out: Anti-Cancer Activity IC50 (48 hr) MOLT-4.

Read-outs that look alike come from different tables or passages of the source.

For `Cc1ncsc1-c1ccc([C@H](C)NC(=O)[C@@H]2C[C@@H](O)CN2C(=O)[C@@H](NC(=O)CCCCC(=O)N2CCC(C3CCN(CC4(C)CCC(c5ccc(Cl)cc5)=C(CN5CCN(c6ccc(C(=O)NS(=O)(=O)c7ccc(N[C@H](CCN8C[C@H]9C[C@@H]8CO9)CSc8ccccc8)c([N+](=O)[O-])c7)cc6)CC5)C4)CC3)CC2)C(C)(C)C)cc1` (stereo partly drawn) [Compound 54], the half-maximal inhibitory concentration (IC50) with RS4; 11 (setting [1]) and in the experiment with MOLT-4 (setting [2]) was below 20 nM throughout.
As to `Cc1ncsc1-c1ccc([C@H](C)NC(=O)[C@@H]2C[C@@H](O)CN2C(=O)[C@@H](NC(=O)CCCCCCC(=O)N2CCN(C[C@]3(C)CCC(c4ccc(Cl)cc4)=C(CN4CCN(c5ccc(C(=O)NS(=O)(=O)c6ccc(N[C@H](CCN7CCCOCC7)CSc7ccccc7)c([N+](=O)[O-])c6)cc5)CC4)C3)CC2)C(C)(C)C)cc1` [Compound 55, (2S,4R)-1-((S)-2-(8-(4-(((R)-6-((4-(4-(((4-(((R)-4-(1,4-oxazepan-4-yl)-1-(phenylthio)butan-2-yl)amino)-3-nitrophenyl)sulfonyl)carbamoyl)phenyl)piperazin-1-yl)methyl)-4′-chloro-4-methyl-2,3,4,5-tetrahydro-[1,1′-biphenyl]-4-yl)methyl)piperazin-1-yl)-8-oxooctanamido)-3,3-dimethylbutanoyl)-4-hydroxy-N—((S)-1-(4-(4-methylthiazol-5-yl)phenyl)ethyl)pyrrolidine-2-carboxamide], the IC50 in the experiment on RS4; 11 (setting [1]) is below 20 nM; in the experiment on RS4; 11 (Table 4, 48 h, read-out: RS4 48 h IC50), 3.2 nM; in the experiment on MOLT-4 (setting [2]) it was below 20 nM; in the experiment on MOLT-4 (Table 4, 48 h, read-out: MOLT-4 48 h IC50), 11 nM.
As to `Cc1ncsc1-c1ccc([C@H](C)NC(=O)[C@@H]2C[C@@H](O)CN2C(=O)[C@@H](NC(=O)CCCCCCC(=O)N2CCN(C[C@]3(C)CCC(c4ccc(Cl)cc4)=C(CN4CCN(c5ccc(C(=O)NS(=O)(=O)c6ccc(N[C@H](CCN7CCCCCC7)CSc7ccccc7)c([N+](=O)[O-])c6)cc5)CC4)C3)CC2)C(C)(C)C)cc1` [Compound 56], the IC50 with RS4; 11 (setting [1]) and with MOLT-4 (setting [2]) was below 20 nM each time.
As for `Cc1ncsc1-c1ccc([C@H](C)NC(=O)[C@@H]2C[C@@H](O)CN2C(=O)[C@@H](NC(=O)CCCCCCC(=O)N2CCN(C[C@]3(C)CCC(c4ccc(Cl)cc4)=C(CN4CCN(c5ccc(C(=O)NS(=O)(=O)c6ccc(N[C@H](CCN7CCc8cccnc8C7)CSc7ccccc7)c([N+](=O)[O-])c6)cc5)CC4)C3)CC2)C(C)(C)C)cc1` [Compound 57, (2S,4R)-1-((S)-2-(8-(4-(((R)-4′-chloro-6-((4-(4-(((4-(((R)-4-(5,8-dihydro-1,7-naphthyridin-7(6H)-yl)-1-(phenylthio)butan-2-yl)amino)-3-nitrophenyl)sulfonyl)carbamoyl)phenyl)piperazin-1-yl)methyl)-4-methyl-2,3,4,5-tetrahydro-[1,1′-biphenyl]-4-yl)methyl)piperazin-1-yl)-8-oxooctanamido)-3,3-dimethylbutanoyl)-4-hydroxy-N—((S)-1-(4-(4-methylthiazol-5-yl)phenyl)ethyl)pyrrolidine-2-carboxamide], the IC50 with RS4; 11 (setting [1]) lay within 20 to 100 nM; in the experiment with MOLT-4 (setting [2]) it was 100 to 500 nM.
The matching figures for `Cc1ncsc1-c1ccc([C@H](C)NC(=O)[C@@H]2C[C@@H](O)CN2C(=O)[C@@H](NC(=O)CCCCCCC(=O)N2CCN(C[C@]3(C)CCC(c4ccc(Cl)cc4)=C(CN4CCN(c5ccc(C(=O)NS(=O)(=O)c6ccc(N[C@H](CCN7CCCCC7)CSc7ccccc7)c(S(=O)(=O)C(F)(F)F)c6)cc5)CC4)C3)CC2)C(C)(C)C)cc1` [Compound 58, (2S,4R)-1-((S)-2-(8-(4-(((R)-4′-chloro-4-methyl-6-((4-(4-(((4-(((R)-1-(phenylthio)-4-(piperidin-1-yl)butan-2-yl)amino)-3-((trifluoromethyl)sulfonyl)phenyl)sulfonyl)carbamoyl)phenyl)piperazin-1-yl)methyl)-2,3,4,5-tetrahydro-[1,1′-biphenyl]-4-yl)methyl)piperazin-1-yl)-8-oxooctanamido)-3,3-dimethylbutanoyl)-4-hydroxy-N—((S)-1-(4-(4-methylthiazol-5-yl)phenyl)ethyl)pyrrolidine-2-carboxamide]: below 20 nM and below 20 nM.
